These results are taken from patent US20140349955A1, “USE OF FLUORINE-CONTAINING WATER SOLUBLE PLATINUM COMPLEX IN PREPARING DRUGS FOR PREVENTION AND TREATMENT OF CANCERS” (GUDUI BIOPHARMA TECHNOLOGY INC., priority 2011, published 2014).

Holding throughout (assay type): cell-based, human
Settings in all cases: 96 h

One assay deals with H460. Briefly: Synergistic cytotoxicity test (MTS), H460. As to the method: (§1) Containing 10% bovine fetal serum, 1 mM of sodium pyruvate, 2 mM of L-glutamine, 50 U/mL of penicillin, 50 μg/ mL of streptomycin.
(§2) Human tumor cells: du145-human prostate cancer; MCF-7-human breast cancer; SK0V3-human ovarian carcinoma, HT-29-human colon cancer; A549-human non-small cell lung cancer (adenocarcinoma), H460-human non-small cell lung cancer (large cell carcinoma), and animal tumor cells: L1210-mice leukemia cells used in the following activity test experiments were all purchased from Shanghai An Yan Commercial Trade Co., Ltd.
(§3) MTS test method was used in cytotoxicity assay. The tumor cells of logarithmic phase were collected, and then the concentration of cell suspension was adjusted, 100 μL of the cell suspension was added to each well, the cells were placed at 1000-10000 cells/well (edge well filled with sterile PBS). Cells were incubated at 37° C. with 5% CO2 to make cell monolayer overspread the bottom of each well (96-well flat-bottomed microplate). 100 μL of certain concentration solution of a mixture of the fluorine-containing water-soluble platinum complex with other antitumor agents was added to each well. Each condition was measured in five replicates. The microplate was incubated at 37° C. with 5% CO2 for 96 h and checked with inverted microscope. MTS working reagent: To 2 mL of MTS (2 mg/mL, prepared by DPBS) was added 100 μL of PMS (1 mg/mL, prepared by DPBS). The cell culture medium was discarded after centrifugation, the cell culture plate was carefully washed 2-3 times with PBS. Before detecting the absorbance value (OD), to each sample containing well was added 100 μL of cell culture medium, then 20 μL of MTS working reagent was added. After incubation at 37° C. with 5% CO2 for 2 h, the OD (optical density) value was detected at 490 nm.
(§4) Each of above experiment was repeated five times, and the cell viability was calculated according to the mean OD values.
(§5) Cell Viability (%)=(treated group OD value/control group OD value)×100
(§6) Control group: the conditions are the same as the above without adding the tested drug mixture (100 μL of culture medium was added in stead), and finally the absorbance was measured at 490 nm to obtain the OD value of the tumor cells.
(§7) Drug Group-1: only the fluorine-containing water-soluble platinum complex was added under the above conditions to obtain cell viability of tumor cells.
(§8) Drug Group-2: only the other chemotherapeutic drug (active ingredient) was added under the above conditions to obtain cell viability of tumor cells.
(§9) Drug Combination Group: the fluorine-containing water-soluble platinum complex and other chemotherapeutic drugs were added simultaneously under the above conditions to obtain cell viability of tumor cell. (2) Evaluation Method:
(§10) When the fluorine-containing water-soluble platinum complexes used in combination with other chemotherapy drugs, the inhibition effect on cancer cell proliferation is enhanced or synergistic, and the effect was calculated using the following formula:
(§11) Combination Effect (%)={[(A1-X)+(A2-X)]/(A1-A2)|}×100
(§12) wherein, A1 is the cell viability of drug group-1, A2 is the cell viability of drug group-2, X is the cell viability of drug combination group, (A1-A2)| is the absolute value of the cell viability difference between the two groups.
(§13) Calculated according to the above formula, when the results of [Combination Effect (%)]>+100%, that means the effect of inhibition on cell proliferation is enhanced or synergistic (3) Experimental Result: […]

In another assay the test system is MCF7. Description: Synergistic cytotoxicity test (MTS), MCF7. The protocol: as §1, §2, §3, §4, §5, §6, §7, §8, §9, §10, §11, §12, §13
The subject of a further assay is DU145. Briefly: Synergistic cytotoxicity test (MTS), DU145. As to the method:
as §1, §2, §3, §4, §5, §6, §7, §8, §9, §10, §11, §12, §13

The subject of another assay is HT29. Description: Synergistic cytotoxicity test (MTS), HT29. As to the method:
as §1, §2, §3, §4, §5, §6, §7, §8, §9, §10, §11, §12, §13

A further assay deals with A549. Description: Synergistic cytotoxicity test (MTS), A549. As to the method:
as §1, §2, §3, §4, §5, §6, §7, §8, §9, §10, §11, §12, §13

Another assay has as its system SK0V3. Briefly: Synergistic cytotoxicity test (MTS), SKOV3. As to the method:
as §1, §2, §3, §4, §5, §6, §7, §8, §9, §10, §11, §12, §13

Setting [1] is: other chemotherapy drug (at its listed dosage) combined with Complex 5 (dosage: 1 μM).
[2] abbreviates: other chemotherapy drug (at its listed dosage) combined with Complex 6 (dosage: 1 μM).
Setting [3] is: other chemotherapy drug (at its listed dosage) combined with Complex 2 (dosage: 1 μM).
The mark [4] stands for this setting: other chemotherapy drug (at its listed dosage) combined with Complex 3 (dosage: 1 μM).
The mark [5] stands for this setting: other chemotherapy drug (at its listed dosage) combined with Complex 2 (dosage: 1 μM), SLOV3.
Where [6] appears, read: other chemotherapy drug (at its listed dosage) combined with Complex 3 (dosage: 1 μM), SlOV3.
Where [7] appears, read: other chemotherapy drug (at its listed dosage) combined with Complex 5 (dosage: 1 μM), SLOV3.
[8] abbreviates: other chemotherapy drug (at its listed dosage) combined with Complex 6 (dosage: 1 μM), SLOV3.

Turning to `Nc1ccn([C@@H]2O[C@H](CO)[C@@H](O)C2(F)F)c(=O)n1` [Gemcitabine], the “the effect of drug combination (Combination Effect)” value (“the effect of drug combination” for short) with H460 (setting [1]), in the assay with H460 (setting [2]), in the assay with MCF7 (setting [3]), in the assay on MCF7 (setting [4]), with MCF7 (setting [1]) and in the assay on MCF7 (setting [2]) was “⊚ (⊚ represents the effect of drug combination > 300%)” in each case. Besides, the “the effect of drug combination” value in the assay on DU145 (setting [3]) is listed as “⊚ (⊚ represents the effect of drug combination > 300%)”; in the assay on DU145 (setting [4]) it was “○ (○ represents: 100% < the effect of drug combination < 300%)”; in the assay with DU145 (setting [1]) it was “○ (○ represents: 100% < the effect of drug combination < 300%)”; with DU145 (setting [2]), “○ (○ represents: 100% < the effect of drug combination < 300%)”; in the assay with HT29 (setting [3]), “⊚ (⊚ represents the effect of drug combination > 300%)”; in the assay on HT29 (setting [4]) it was “⊚ (⊚ represents the effect of drug combination > 300%)”. In addition, the “the effect of drug combination” value is reported as “⊚ (⊚ represents the effect of drug combination > 300%)” with HT29 (setting [1]); “⊚ (⊚ represents the effect of drug combination > 300%)” in the assay on HT29 (setting [2]); “⊚ (⊚ represents the effect of drug combination > 300%)” in the assay on A549 (setting [3]); “⊚ (⊚ represents the effect of drug combination > 300%)” with A549 (setting [4]); “⊚ (⊚ represents the effect of drug combination > 300%)” in the assay on SK0V3 (setting [5]); “○ (○ represents: 100% < the effect of drug combination < 300%)” in the assay on SK0V3 (setting [6]). Further, the “the effect of drug combination” value with SK0V3 (setting [7]) and in the assay on SK0V3 (setting [8]) was “○ (○ represents: 100% < the effect of drug combination < 300%)” throughout.

For the compound `CCc1c2c(nc3ccc(OC(=O)N4CCC(N5CCCCC5)CC4)cc13)-c1cc3c(c(=O)n1C2)COC(=O)[C@]3(O)CC` [Irinotecan], the “the effect of drug combination” value is “⊚ (⊚ represents the effect of drug combination > 300%)” in the assay with H460 (setting [1]); “⊚ (⊚ represents the effect of drug combination > 300%)” in the assay with H460 (setting [2]); “○ (○ represents: 100% < the effect of drug combination < 300%)” with MCF7 (setting [3]); “○ (○ represents: 100% < the effect of drug combination < 300%)” in the assay with MCF7 (setting [4]); “○ (○ represents: 100% < the effect of drug combination < 300%)” in the assay with MCF7 (setting [1]); “○ (○ represents: 100% < the effect of drug combination < 300%)” in the assay on MCF7 (setting [2]). Moreover, the “the effect of drug combination” value is listed as “○ (○ represents: 100% < the effect of drug combination < 300%)” in the assay on DU145 (setting [3]); “○ (○ represents: 100% < the effect of drug combination < 300%)” with DU145 (setting [4]); “○ (○ represents: 100% < the effect of drug combination < 300%)” in the assay with DU145 (setting [1]); “○ (○ represents: 100% < the effect of drug combination < 300%)” with DU145 (setting [2]); “⊚ (⊚ represents the effect of drug combination > 300%)” with HT29 (setting [3]); “⊚ (⊚ represents the effect of drug combination > 300%)” with HT29 (setting [4]). Further, the “the effect of drug combination” value in the assay on HT29 (setting [1]), in the assay on HT29 (setting [2]), in the assay on A549 (setting [3]), with A549 (setting [4]), with SK0V3 (setting [5]) and in the assay on SK0V3 (setting [6]) was “⊚ (⊚ represents the effect of drug combination > 300%)” in each case. For the same compound, the “the effect of drug combination” value in the assay on SK0V3 (setting [7]) and in the assay with SK0V3 (setting [8]) was “⊚ (⊚ represents the effect of drug combination > 300%)” in each case.

On to `CC(=O)O[C@H]1C(=O)[C@@]2(C)[C@H]([C@H](OC(=O)c3ccccc3)[C@]3(O)C[C@H](OC(=O)[C@H](O)[C@@H](NC(=O)c4ccccc4)c4ccccc4)C(C)=C1C3(C)C)[C@]1(OC(C)=O)CO[C@@H]1C[C@@H]2O` [Paclitaxel], for which the “the effect of drug combination” value in the assay on H460 (setting [1]), in the assay with H460 (setting [2]), in the assay with MCF7 (setting [3]), in the assay on MCF7 (setting [4]), with MCF7 (setting [1]) and in the assay on MCF7 (setting [2]) was “⊚ (⊚ represents the effect of drug combination > 300%)” each time. Moreover, the “the effect of drug combination” value is reported as “○ (○ represents: 100% < the effect of drug combination < 300%)” in the assay with DU145 (setting [3]); “⊚ (⊚ represents the effect of drug combination > 300%)” with DU145 (setting [4]); “⊚ (⊚ represents the effect of drug combination > 300%)” in the assay on DU145 (setting [1]); “⊚ (⊚ represents the effect of drug combination > 300%)” with DU145 (setting [2]); “⊚ (⊚ represents the effect of drug combination > 300%)” with HT29 (setting [3]); “⊚ (⊚ represents the effect of drug combination > 300%)” in the assay on HT29 (setting [4]). For the same compound, the “the effect of drug combination” value was “⊚ (⊚ represents the effect of drug combination > 300%)” in the assay on HT29 (setting [1]); “○ (○ represents: 100% < the effect of drug combination < 300%)” with HT29 (setting [2]); “⊚ (⊚ represents the effect of drug combination > 300%)” in the assay on A549 (setting [3]); “⊚ (⊚ represents the effect of drug combination > 300%)” with A549 (setting [4]); “⊚ (⊚ represents the effect of drug combination > 300%)” with SK0V3 (setting [5]); “⊚ (⊚ represents the effect of drug combination > 300%)” with SK0V3 (setting [6]). The “the effect of drug combination” value with SK0V3 (setting [7]) and in the assay with SK0V3 (setting [8]) was “⊚ (⊚ represents the effect of drug combination > 300%)” each time.
